Measurements taken from patent publication EP0973746B1, “SUBSTITUTED 3-CYANO QUINOLINES” (Wyeth Holdings Corporation, priority 1997, dated 1998).
Values after ≈ are worked out from the molar mass of the structure shown. Like-named read-outs stand apart in the source and are kept apart here.

Experiments:
A431 [1] = assay: Inhibition of cell growth by incorporation of [3H]-thymidine, A431; type: cell-based, human; settings: Homo sapiens
Protocol: Representative compounds of this invention were evaluated for their ability to inhibit the growth of the cell lines described below in vitro. The inhibition is quantitated by measuring the decrease in the incorporation of radio-labeled thymidine when the cells are grown in the presence of the inhibitor. […] Cells were routinely grown in a humidified incubator in 5% CO2 in air.
Cells were seeded at 10,000 cells/well in 96 well plates in complete media and allowed to grow to log phase. At this stage the complete media was replaced with media containing 0.5% FBS (for cells growing in 10% FBS) or media lacking epidermal growth factor (EGF) (for cells growing in serum free media). […] Media with test compound was then removed and complete media was added back. The cells were allowed to grow for 18 hours. This is followed by incubation in [^3H]thymidine (1mCi/ml in serum/EGF media) for 4 hours. Cells were lysed in 0.5 M NaOH for at least 30 min at 37°C and radioactivity analyzed.
The % inhibition of the compound evaluated was determined for at least three different concentrations and the IC50 value evaluated from the dose response curve. […] CPM(control) is in units of counts per minute and is a number expressing the amount of [^3H]thymidine incorporated onto the DNA when cells are grown in the absence of test compound as measured by liquid scintillation counting.

HTB161 = assay: Inhibition of cancer cell growth as measured by cell number, HTB161; type: cell-based; settings: Homo sapiens, read-out: IC50 HTB161
A27805 = assay: Inhibition of cancer cell growth as measured by cell number, A27805; type: cell-based; settings: Homo sapiens, read-out: IC50 A27805
A2780DDP = assay: Inhibition of cancer cell growth as measured by cell number, A2780DDP; type: cell-based; settings: Homo sapiens, read-out: IC50 A2780DDP
MIP = assay: Inhibition of cancer cell growth as measured by cell number, MIP; type: cell-based; settings: Homo sapiens; cell number, Sulforhodamine B, 48 hours exposure; Table 4; read-out: IC50 MIP
SW620 = assay: Inhibition of cancer cell growth as measured by cell number, SW620; type: cell-based, human; settings: Homo sapiens, SW-620, 48 h, Table 4;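 note: SW620 was included as a cell line with little or no EGFR or HER2/neu expression, in contrast to receptor-overexpressing lines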
Description: (§1) The cell lines were chosen since they overexpressed epidermal growth factor receptor (EGFR) (i.e. A431) or HER2/neu (SKBR3), or had little to no expression of the these receptors (SW620, LOX, MCF7).

COLO205 = assay: Inhibition of cancer cell growth as measured by cell number, COLO205; type: cell-based; settings: Homo sapiens, COLO 205; cell number, Sulforhodamine B, 48 hours exposure; Table 4; read-out: IC50 COLO205
CX1 = assay: Inhibition of cancer cell growth as measured by cell number, CX1; type: cell-based; settings: Homo sapiens, read-out: IC50 CX1
CACO2 = assay: Inhibition of cancer cell growth as measured by cell number, CACO2; type: cell-based; settings: Homo sapiens, read-out: IC50 CACO2
HCT15 = assay: Inhibition of cancer cell growth as measured by cell number, HCT15; type: cell-based; settings: Homo sapiens, read-out: IC50 HCT15
LS174T = assay: Inhibition of cancer cell growth as measured by cell number, LS174T; type: cell-based; settings: Homo sapiens
SW948 = assay: Inhibition of cancer cell growth as measured by cell number, SW948; type: cell-based; settings: Homo sapiens, read-out: IC50 SW948
CCL228 = assay: Inhibition of cancer cell growth as measured by cell number, CCL228; type: cell-based; settings: Homo sapiens, read-out: IC50 CCL228
MCF7 = assay: Inhibition of cancer cell growth as measured by cell number, MCF7; type: cell-based, human; settings: Homo sapiens, MCF7, 48 h, cell number, Sulforhodamine B, 48 hours exposure; Table 5; read-out: IC50 MCF7;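 note: MCF7 was included as a line with little or no EGFR or HER2/neu expression, in contrast to the receptor-overexpressing lines of the panel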
Description: as §1

B7474 = assay: Inhibition of cancer cell growth as measured by cell number, B7474; type: cell-based; settings: Homo sapiens, read-out: IC50 B7474
T47D = assay: Inhibition of cancer cell growth as measured by cell number, T47D; type: cell-based; settings: Homo sapiens
LX1 = assay: Inhibition of cancer cell growth as measured by cell number, LX1; type: cell-based; settings: Homo sapiens, read-out: IC50 LX1
A549 = assay: Inhibition of cancer cell growth as measured by cell number, A549; type: cell-based; settings: Homo sapiens, read-out: IC50 A549
LOX = assay: Inhibition of cancer cell growth as measured by cell number, LOX; type: cell-based, human; settings: Homo sapiens, LOX, 48 h, Table 6;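 note: LOX cells served as a line with low or absent EGFR and HER2/neu expression, in contrast to receptor-overexpressing lines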
Description: as §1

A431 [2] = assay: Inhibition of cancer cell growth as measured by cell number, A431; type: cell-based, human; settings: Homo sapiens, A-431, 48 h, Table 6;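 note: human A431 line, picked because it overexpresses epidermal growth factor receptor (EGFR)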
Description: as §1

NEC = assay: Inhibition of cancer cell growth as measured by cell number, NEC; type: cell-based; settings: Homo sapiens; cell number, Sulforhodamine B, 48 hours exposure; Table 6; read-out: IC50 NEC
DU145 = assay: Inhibition of cancer cell growth as measured by cell number, DU145; type: cell-based; settings: Homo sapiens, read-out: IC50 DU145
PC3 = assay: Inhibition of cancer cell growth as measured by cell number, PC3; type: cell-based; settings: Homo sapiens, read-out: IC50 PC3
LNCAP = assay: Inhibition of cancer cell growth as measured by cell number, LNCAP; type: cell-based; settings: Homo sapiens, cell number, Sulforhodamine B, 48 hours exposure, Table 7, read-out: IC50 LNCAP
HL60 = assay: Inhibition of cancer cell growth as measured by cell number, HL60; type: cell-based; settings: Homo sapiens, read-out: IC50 HL60
CCRF-CFM = assay: Inhibition of cancer cell growth as measured by cell number, CCRF-CFM; type: cell-based; settings: Homo sapiens, read-out: IC50 CCRF-CFM
SKBR3 = assay: Inhibition of cancer cell growth as measured by cell number, SKBR3; type: cell-based, human; settings: Homo sapiens, SK-BR-3; cell number, Sulforhodamine B, 48 hours exposure; Table 7; read-out: IC50 SKBR3;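 note: SK-BR-3 cells were selected as a line overexpressing HER2/neu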
Description: as §1

[3] = target: recombinant human MEK 1 (MAPKK) and recombinant human ERK2 (MAPK); assay: Mitogen Activated Protein Kinase (MAPK) assay, two component coupled MEK 1 / ERK2; type: biochemical; settings: separate entries for the same compound = evaluated more than one time;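 note: MEK 1-activated ERK2 phosphorylates MBP or Myc peptide with 33P-ATP, filter capture and scintillation counting, inhibitor preincubated with ERK2 30 min at 0 °C, inhibition relative to uninhibited control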
[4] = target: epidermal growth factor receptor kinase (Homo sapiens, UniProt P00533); assay: biochemical
[5] = cell number, Sulforhodamine B, 48 hours exposure, Table 4

epidermal growth factor receptor kinase, sequence (P00533 25-1210): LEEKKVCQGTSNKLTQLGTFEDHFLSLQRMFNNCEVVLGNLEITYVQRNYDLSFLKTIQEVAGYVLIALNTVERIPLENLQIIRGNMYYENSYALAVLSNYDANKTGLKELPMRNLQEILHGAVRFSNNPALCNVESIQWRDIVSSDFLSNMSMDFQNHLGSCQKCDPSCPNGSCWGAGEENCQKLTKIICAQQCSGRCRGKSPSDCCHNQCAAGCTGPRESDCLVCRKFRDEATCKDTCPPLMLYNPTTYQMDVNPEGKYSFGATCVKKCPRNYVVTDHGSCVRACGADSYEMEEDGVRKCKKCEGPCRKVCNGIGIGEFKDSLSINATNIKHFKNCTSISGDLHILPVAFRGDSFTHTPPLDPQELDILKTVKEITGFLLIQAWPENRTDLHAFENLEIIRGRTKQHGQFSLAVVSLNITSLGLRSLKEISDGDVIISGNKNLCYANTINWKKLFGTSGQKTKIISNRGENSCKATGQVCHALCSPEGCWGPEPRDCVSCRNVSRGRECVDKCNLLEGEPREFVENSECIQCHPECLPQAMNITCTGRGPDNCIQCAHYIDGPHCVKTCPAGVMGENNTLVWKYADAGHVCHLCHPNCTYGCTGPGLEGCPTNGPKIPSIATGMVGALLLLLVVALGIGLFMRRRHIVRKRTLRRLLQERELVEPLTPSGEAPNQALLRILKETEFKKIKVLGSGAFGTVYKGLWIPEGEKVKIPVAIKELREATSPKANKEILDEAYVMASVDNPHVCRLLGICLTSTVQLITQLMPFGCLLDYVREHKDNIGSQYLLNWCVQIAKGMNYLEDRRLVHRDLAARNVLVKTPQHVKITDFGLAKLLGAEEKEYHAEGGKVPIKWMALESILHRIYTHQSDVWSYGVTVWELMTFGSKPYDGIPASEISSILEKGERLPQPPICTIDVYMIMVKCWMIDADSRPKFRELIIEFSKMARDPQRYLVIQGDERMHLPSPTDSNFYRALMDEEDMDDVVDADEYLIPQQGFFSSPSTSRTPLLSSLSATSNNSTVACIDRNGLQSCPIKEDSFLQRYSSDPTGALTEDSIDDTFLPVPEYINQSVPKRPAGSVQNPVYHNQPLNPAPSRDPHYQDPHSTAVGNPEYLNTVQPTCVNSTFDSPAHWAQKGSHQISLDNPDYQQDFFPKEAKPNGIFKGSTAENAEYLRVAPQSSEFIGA

Work on COc1cc2[nH]cc(C#N)c(=O)c2cc1OC [Example 33, 1,4-Dihydro-6,7-dimethoxy-4-oxo-3-quinolinecarbonitrile] yielded an IC50 (A431 [1]; A-431, [3H]-thymidine incorporation, A431, read-out: IC50 A431) of 18 µM.
COc1cc2ncc(C#N)c(Sc3ccc(Br)cc3)c2cc1OC [Example 50, 4-[(4-Bromophenyl)sulfanyl]-6,7-dimethoxy-3-quinolinecarbonitrile] showed an IC50 (HTB161; [5]) of 4.46 µg/mL (≈ 11.1 µM), an IC50 (A27805; [5]) of 4.68 µg/mL (≈ 11.7 µM) and an IC50 (A2780DDP; [5]) of 6.42 µg/mL (≈ 16 µM). It also gave an IC50 (MIP) of 7.35 µg/mL (≈ 18.3 µM), an IC50 (SW620; cell number, Sulforhodamine B, 48 hours exposure, read-out: IC50 SW620) of 32.9 µg/mL (≈ 81.9 µM) and an IC50 (COLO205) of 28.5 µg/mL (≈ 70.9 µM). The IC50 (CX1; CX-1, cell number, Sulforhodamine B, 48 hours exposure, Table 4) was 8.72 µg/mL (≈ 21.7 µM), the IC50 (CACO2; Caco-2, cell number, Sulforhodamine B, 48 hours exposure, Table 5) was 4.89 µg/mL (≈ 12.2 µM) and the IC50 (HCT15; HCT-15, cell number, Sulforhodamine B, 48 hours exposure, Table 5) was 8.54 µg/mL (≈ 21.3 µM). It also gave an IC50 (LS174T; cell number, Sulforhodamine B, 48 hours exposure, Table 5, read-out: IC50 LS174T) of 7.68 µg/mL (≈ 19.1 µM), an IC50 (SW948; SW948, cell number, Sulforhodamine B, 48 hours exposure, Table 5) of 17.9 µg/mL (≈ 44.6 µM) and an IC50 (CCL228; cell number, Sulforhodamine B, 48 hours exposure, Table 5) of 6.79 µg/mL (≈ 16.9 µM). It also gave an IC50 (MCF7) of 7.14 µg/mL (≈ 17.8 µM), an IC50 (B7474; cell number, Sulforhodamine B, 48 hours exposure, Table 6) of 7.17 µg/mL (≈ 17.9 µM) and an IC50 (T47D; cell number, Sulforhodamine B, 48 hours exposure, Table 6, read-out: IC50 T47D) of 5.42 µg/mL (≈ 13.5 µM). It also gave an IC50 (LX1; LX-1, cell number, Sulforhodamine B, 48 hours exposure, Table 6) of 7.21 µg/mL (≈ 18 µM), an IC50 (A549; A549, cell number, Sulforhodamine B, 48 hours exposure, Table 6) of 6.82 µg/mL (≈ 17 µM) and an IC50 (LOX; cell number, Sulforhodamine B, 48 hours exposure, read-out: IC50 LOX) of 4.7 µg/mL (≈ 11.7 µM). It also gave an IC50 (A431 [2]; cell number, Sulforhodamine B, 48 hours exposure, read-out: IC50 A431) of 7.35 µg/mL (≈ 18.3 µM), an IC50 (NEC) of 6.89 µg/mL (≈ 17.2 µM) and an IC50 (DU145; DU-145, cell number, Sulforhodamine B, 48 hours exposure, Table 7) of 5.6 µg/mL (≈ 14 µM). The IC50 (PC3; PC-3, cell number, Sulforhodamine B, 48 hours exposure, Table 7) was 8.53 µg/mL (≈ 21.2 µM), the IC50 (LNCAP) was 5.34 µg/mL (≈ 13.3 µM) and the IC50 (HL60; HL-60, cell number, Sulforhodamine B, 48 hours exposure, Table 7) was 4.72 µg/mL (≈ 11.8 µM). It also gave an IC50 (CCRF-CFM; cell number, Sulforhodamine B, 48 hours exposure, Table 7) of 4.6 µg/mL (≈ 11.5 µM), an IC50 (SKBR3) of 6.83 µg/mL (≈ 17 µM) and an IC50 [3] of over 100 µM. It also gave an IC50 [4] of 5 µM.
With COc1cc2ncc(C#N)c(Nc3ccc(F)cc3)c2cc1OC [Example 46, 4-((4-Fluorophenyl)amino]-6,7-dimethoxy-3-quinolinecarbonitrile] the IC50 (A431 [1]; A-431, read-out: IC50 A431) was 1 µM, the IC50 (HTB161; 48 h) was 9.59 µg/mL (≈ 29.6 µM) and the IC50 (A27805; 48 h) was 7.41 µg/mL (≈ 22.9 µM). For the same compound, the IC50 (A2780DDP; 48 h) was 5.86 µg/mL (≈ 18.1 µM), the IC50 (MIP) was 5.6 µg/mL (≈ 17.3 µM) and the IC50 (SW620; read-out: IC50 SW620, cell number, Sulforhodamine B, 48 hours exposure) was over 100 µg/mL. It also gave an IC50 (CX1; CX-1, 48 h) of 9.7 µg/mL (≈ 30 µM), an IC50 (CACO2; Caco-2, 48 h) of 6.03 µg/mL (≈ 18.6 µM) and an IC50 (HCT15; HCT-15, 48 h) of 5.6 µg/mL (≈ 17.3 µM). The IC50 (LS174T; 48 h, read-out: IC50 LS174T) was 7.13 µg/mL (≈ 22 µM), the IC50 (SW948; SW948, 48 h) was over 100 µg/mL and the IC50 (CCL228; 48 h) was 54 µg/mL (≈ 167 µM). It also gave an IC50 (B7474; 48 h) of 32.9 µg/mL (≈ 102 µM), an IC50 (T47D; 48 h, read-out: IC50 T47D) of over 100 µg/mL and an IC50 (LX1; LX-1, 48 h) of 34 µg/mL (≈ 105 µM). The IC50 (A549; A549, 48 h) was 4.85 µg/mL (≈ 15 µM), the IC50 (LOX; read-out: IC50 LOX, cell number, Sulforhodamine B, 48 hours exposure) was 5.35 µg/mL (≈ 16.5 µM) and the IC50 (A431 [2]; read-out: IC50 A431, cell number, Sulforhodamine B, 48 hours exposure) was 8.01 µg/mL (≈ 24.8 µM). For the same compound, the IC50 (DU145; DU-145, 48 h) was 3.63 µg/mL (≈ 11.2 µM), the IC50 (PC3; PC-3, 48 h) was over 100 µg/mL and the IC50 (HL60; HL-60, 48 h) was 6.02 µg/mL (≈ 18.6 µM). It also gave an IC50 (CCRF-CFM; 48 h) of 61.7 µg/mL (≈ 191 µM) and an IC50 [4] of 8.83 µM.
